Results published in patent US12539292B2, “BRM targeting compounds and associated methods of use” (Arvinas Operations, Inc., priority 2018, dated 2026).
Read-outs that look alike come from different tables or passages of the source. One block for each compound: values may come before it.

Target: T1, BRM (Homo sapiens, UniProt P51531)
T1 construct: In-Cell Western Screen of BRM Degradation in SW1573 Cells; endogenous in cells; host or cells: SW1573
Assay: In-cell Western screen of BRM degradation in SW1573 cells (Dmax and DC50)
Type: cell-based
In short: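 SW1573, overnight cpd exposure (18-20 h), 0.1% DMSO final. PFA fix, 0.5% Triton permeabilization, block; IR secondaries at 800/680 nm. Odyssey read → Dmax, DC50.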

[1] = BRM degradation, SW1573 cells, Table 2D, read-out: *DC50
[2] = BRM degradation, SW1573 cells, read-out: DC50
[3] = BRM degradation, SW1573 cells, tested at the top concentration of between 0.3 and 10 μM, read-out: Dmax (%) (% degraded)
[4] = BRM degradation, SW1573 cells, read-out: Dmax (% degraded)
[5] = SW1573, % degraded, when tested at the top concentration of between 0.3 and 10 μM, read-out: BRM Dmax (%)

T1 sequence (P51531 whole entry): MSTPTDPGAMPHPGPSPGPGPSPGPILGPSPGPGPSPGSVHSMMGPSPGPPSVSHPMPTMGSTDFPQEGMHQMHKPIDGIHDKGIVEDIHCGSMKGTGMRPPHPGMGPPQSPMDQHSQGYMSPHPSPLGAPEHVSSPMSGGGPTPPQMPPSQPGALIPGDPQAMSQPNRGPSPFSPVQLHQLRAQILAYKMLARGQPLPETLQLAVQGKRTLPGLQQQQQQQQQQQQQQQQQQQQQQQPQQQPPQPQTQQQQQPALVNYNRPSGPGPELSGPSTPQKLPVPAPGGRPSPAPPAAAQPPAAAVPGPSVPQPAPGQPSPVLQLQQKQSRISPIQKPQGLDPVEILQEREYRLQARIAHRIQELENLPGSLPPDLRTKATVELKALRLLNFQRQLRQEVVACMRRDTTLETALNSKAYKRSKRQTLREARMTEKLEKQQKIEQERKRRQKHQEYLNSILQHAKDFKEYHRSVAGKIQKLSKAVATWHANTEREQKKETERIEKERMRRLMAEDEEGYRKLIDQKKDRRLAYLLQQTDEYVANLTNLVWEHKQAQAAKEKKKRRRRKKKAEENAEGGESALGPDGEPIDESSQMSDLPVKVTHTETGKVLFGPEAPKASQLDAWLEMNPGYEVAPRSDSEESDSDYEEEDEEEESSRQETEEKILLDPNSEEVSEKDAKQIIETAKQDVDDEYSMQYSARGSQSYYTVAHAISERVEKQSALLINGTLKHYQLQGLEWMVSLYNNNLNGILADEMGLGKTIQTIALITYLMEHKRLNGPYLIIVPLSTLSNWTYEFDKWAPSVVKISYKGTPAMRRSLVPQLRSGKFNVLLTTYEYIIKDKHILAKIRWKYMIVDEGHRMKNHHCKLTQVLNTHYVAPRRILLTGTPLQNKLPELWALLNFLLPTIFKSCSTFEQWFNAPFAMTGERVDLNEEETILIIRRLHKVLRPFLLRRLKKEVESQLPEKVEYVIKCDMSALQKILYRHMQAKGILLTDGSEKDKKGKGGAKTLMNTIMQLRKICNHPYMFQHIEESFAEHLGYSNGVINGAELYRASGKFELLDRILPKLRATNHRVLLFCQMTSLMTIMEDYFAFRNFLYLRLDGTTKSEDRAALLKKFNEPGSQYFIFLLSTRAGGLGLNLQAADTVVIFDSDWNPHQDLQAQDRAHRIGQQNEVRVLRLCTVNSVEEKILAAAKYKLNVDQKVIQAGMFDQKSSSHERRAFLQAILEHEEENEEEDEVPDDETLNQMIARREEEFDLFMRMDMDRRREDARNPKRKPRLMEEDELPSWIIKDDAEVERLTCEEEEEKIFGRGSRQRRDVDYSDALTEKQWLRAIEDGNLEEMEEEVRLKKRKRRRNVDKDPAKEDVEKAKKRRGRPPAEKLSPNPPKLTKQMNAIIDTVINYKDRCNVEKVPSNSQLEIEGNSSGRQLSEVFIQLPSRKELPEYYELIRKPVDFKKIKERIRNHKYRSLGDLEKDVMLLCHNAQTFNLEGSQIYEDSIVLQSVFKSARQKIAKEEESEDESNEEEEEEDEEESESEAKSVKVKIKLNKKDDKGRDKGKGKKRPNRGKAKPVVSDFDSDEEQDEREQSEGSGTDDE

SMILES: Cc1ncsc1-c1ncc([C@H](C)NC(=O)[C@@H]2C[C@@H](O)CN2C(=O)C(c2cc(OCCN3CCC(O[C@H]4C[C@H](Oc5cc(N6C7CCC6CN(c6cc(-c8ccccc8O)nnc6N)C7)ccn5)C4)CC3)no2)C(C)C)cc1F (stereo partly drawn) [compound 500, (2S,4R)-1-(2-(3-(2-(4-((1r,3r)-3-((4-(3-(3-amino-6-(2-hydroxyphenyl)pyridazin-4-yl)-3,8-diazabicyclo[3.2.1]octan-8-yl)pyridin-2-yl)oxy)cyclobutoxy)piperidin-1-yl)ethoxy)isoxazol-5-yl)-3-methylbutanoyl)-N-((S)-1-(5-fluoro-6-(4-methylthiazol-5-yl)pyridin-3-yl)ethyl)-4-hydroxypyrrolidine-2-carboxamide]
DC50 (BRM degradation, read-out: BRM DC50): > 30 nM

DC50 [1]: > 30 nM
SMILES: Cc1cc([C@H](C(=O)N2C[C@H](O)C[C@H]2C(=O)N[C@@H](C)c2ccc(-c3scnc3C)cc2)[C@H](C)COCCCn2cc(-c3cc(-c4ccccc4O)nnc3N)cn2)on1 [compound 560, (2S,4R)-1-((2R,3S)-4-(3-(4-(3-amino-6-(2-hydroxyphenyl)pyridazin-4-yl)-1H-pyrazol-1-yl)propoxy)-3-methyl-2-(3-methylisoxazol-5-yl)butanoyl)-4-hydroxy-N-((S)-1-(4-(4-methylthiazol-5-yl)phenyl)ethyl)pyrrolidine-2-carboxamide]

Dmax (BRM degradation, SW1573 cells, Table 2D, read-out: **Dmax (%) (% degraded)): > 75%
DC50 [1]: < 2.5 nM
SMILES: Cc1ncsc1-c1ccc([C@H](C)NC(=O)[C@@H]2C[C@@H](O)CN2C(=O)[C@@H](c2cc(N3CCC(OC4CCN(CC5CC(CN6CCC([C@H](C)n7cc(-c8cc(-c9ccccc9O)nnc8N)cn7)CC6)C5)CC4)CC3)no2)C(C)C)cc1 (single isomer, unassigned) [compound 594]

SMILES: Cc1ncsc1-c1ccc([C@H](CO)NC(=O)[C@@H]2C[C@@H](O)CN2C(=O)[C@@H](c2cc(OCCN3CCC(O[C@H]4C[C@H](Oc5cc(N6C7CCC6CN(c6cc(-c8ccccc8O)nnc6N)C7)ccn5)C4)CC3)no2)C(C)C)cc1 [compound 199, (2S,4R)-1-((2R)-2-(3-(2-(4-((1r,3R)-3-((4-(3-(3-amino-6-(2-hydroxyphenyl)pyridazin-4-yl)-3,8-diazabicyclo[3.2.1]octan-8-yl)pyridin-2-yl)oxy)cyclobutoxy)piperidin-1-yl)ethoxy)isoxazol-5-yl)-3-methylbutanoyl)-4-hydroxy-N-((R)-2-hydroxy-1-(4-(4-methylthiazol-5-yl)phenyl)ethyl)pyrrolidine-2-carboxamide]
DC50 [2]: < 2.5 nM
Dmax [3]: > 75%

SMILES: Cc1ncsc1-c1ccc([C@H](C)NC(=O)[C@@H]2C[C@@H](O)CN2C(=O)[C@@H](c2cc(O[C@H]3C[C@H](CN4CCC(O[C@H]5C[C@H](Oc6cc(N7C8CCC7CN(c7cc(-c9ccccc9O)nnc7N)C8)ccn6)C5)CC4)C3)no2)C(C)C)cc1 [compound 242, (2S,4R)-1-((2R)-2-(3-((1R,3R)-3-((4-((1r,3R)-3-((4-(3-(3-amino-6-(2-hydroxyphenyl)pyridazin-4-yl)-3,8-diazabicyclo[3.2.1]octan-8-yl)pyridin-2-yl)oxy)cyclobutoxy)piperidin-1-yl)methyl)cyclobutoxy)isoxazol-5-yl)-3-methylbutanoyl)-4-hydroxy-N-((S)-1-(4-(4-methylthiazol-5-yl)phenyl)ethyl)pyrrolidine-2-carboxamide]
DC50 [2]: < 2.5 nM
Dmax [3]: > 75%

SMILES: Cc1ncsc1-c1cc(F)c([C@H](C)NC(=O)[C@@H]2C[C@@H](O)CN2C(=O)[C@@H](c2cc(N3CCC(CN4CCC(O[C@H]5C[C@H](Oc6cc(N7C8CCC7CN(c7cc(-c9ccccc9O)nnc7N)C8)ccn6)C5)CC4)CC3)no2)C(C)C)cc1F [compound 681, (2S,4R)-1-((2R)-2-(3-(4-((4-((1r,3r)-3-((4-(3-(3-amino-6-(2-hydroxyphenyl)pyridazin-4-yl)-3,8-diazabicyclo[3.2.1]octan-8-yl)pyridin-2-yl)oxy)cyclobutoxy)piperidin-1-yl)methyl)piperidin-1-yl)isoxazol-5-yl)-3-methylbutanoyl)-N-((S)-1-(2,5-difluoro-4-(4-methylthiazol-5-yl)phenyl)ethyl)-4-hydroxypyrrolidine-2-carboxamide]
DC50 [2]: < 2.5 nM
Dmax [4]: > 75%

SMILES: Cc1ncsc1-c1ccc([C@@H](NC(=O)[C@@H]2C[C@@H](O)CN2C(=O)[C@@H](c2cc(OCCN3CCN(CCOc4cc(N5C6CCC5CN(c5cc(-c7ccccc7O)nnc5N)C6)ccn4)CC3)no2)C(C)C)C(F)F)cc1 [compound 102, (2S,4R)-1-((2R)-2-(3-(2-(4-(2-((4-(3-(3-amino-6-(2-hydroxyphenyl)pyridazin-4-yl)-3,8-diazabicyclo[3.2.1]octan-8-yl)pyridin-2-yl)oxy)ethyl)piperazin-1-yl)ethoxy)isoxazol-5-yl)-3-methylbutanoyl)-N-((R)-2,2-difluoro-1-(4-(4-methylthiazol-5-yl)phenyl)ethyl)-4-hydroxypyrrolidine-2-carboxamide]
DC50 [2]: < 2.5 nM
Dmax (BRM degradation, SW1573 cells, when tested at the top concentration of between 0.3 and 10 μM, read-out: Dmax (%) (% degraded)): > 75%

SMILES: Cc1ncoc1-c1ccc([C@H](C)NC(=O)[C@@H]2C[C@@H](O)CN2C(=O)[C@H](c2cc(OCCN3CCC(O[C@H]4C[C@H](Oc5cc(N6C7CCC6CN(c6cc(-c8ccccc8O)nnc6N)C7)ccn5)C4)CC3)no2)C(C)C)cn1 [compound 229, (2S,4R)-1-((2S)-2-(3-(2-(4-((1r,3S)-3-((4-(3-(3-amino-6-(2-hydroxyphenyl)pyridazin-4-yl)-3,8-diazabicyclo[3.2.1]octan-8-yl)pyridin-2-yl)oxy)cyclobutoxy)piperidin-1-yl)ethoxy)isoxazol-5-yl)-3-methylbutanoyl)-4-hydroxy-N-((S)-1-(6-(4-methyloxazol-5-yl)pyridin-3-yl)ethyl)pyrrolidine-2-carboxamide]
DC50 [2]: > 30 nM

SMILES: Cc1ncsc1-c1ccc([C@H](C)NC(=O)[C@@H]2C[C@@H](O)CN2C(=O)[C@@H](c2cc(N3CCC(C(C)N4CCC(O[C@H]5C[C@H](Oc6cc(N7C8CCC7CN(c7cc(-c9ccccc9O)nnc7N)C8)ccn6)C5)CC4)CC3)no2)C(C)C)cc1 (stereo partly drawn) [compound 644, (2S,4R)-1-((2R)-2-(3-(4-(1-(4-((1r,3r)-3-((4-(3-(3-amino-6-(2-hydroxyphenyl)pyridazin-4-yl)-3,8-diazabicyclo[3.2.1]octan-8-yl)pyridin-2-yl)oxy)cyclobutoxy)piperidin-1-yl)ethyl)piperidin-1-yl)isoxazol-5-yl)-3-methylbutanoyl)-4-hydroxy-N-((S)-1-(4-(4-methylthiazol-5-yl)phenyl)ethyl)pyrrolidine-2-carboxamide]
DC50 [2]: < 2.5 nM
Dmax [4]: > 75%

SMILES: Cc1ncsc1-c1cc(F)c([C@@H](C)NC(=O)[C@@H]2C[C@@H](O)CN2C(=O)[C@@H](c2cc(OCCN3CCC(O[C@H]4C[C@H](Oc5cc(N6C7CCC6CN(c6cc(-c8ccccc8O)nnc6N)C7)ccn5)C4)CC3)no2)C(C)C)cn1 [compound 541, (2S,4R)-1-((2R)-2-(3-(2-(4-((1r,3R)-3-((4-(3-(3-amino-6-(2-hydroxyphenyl)pyridazin-4-yl)-3,8-diazabicyclo[3.2.1]octan-8-yl)pyridin-2-yl)oxy)cyclobutoxy)piperidin-1-yl)ethoxy)isoxazol-5-yl)-3-methylbutanoyl)-N-((R)-1-(4-fluoro-6-(4-methylthiazol-5-yl)pyridin-3-yl)ethyl)-4-hydroxypyrrolidine-2-carboxamide]
DC50 [1]: > 30 nM

SMILES: Cc1ncsc1-c1ccc([C@H](C)NC(=O)[C@@H]2C[C@@H](O)CN2C(=O)[C@@H](c2cc(OCC#CC34CC(CN5CC(Oc6cc(N7C8CCC7CN(c7cc(-c9ccccc9O)nnc7N)C8)ccn6)C5)(C3)C4)no2)C(C)C)cc1 [compound 383, (2S,4R)-1-((2R)-2-(3-((3-(3-((3-((4-(3-(3-amino-6-(2-hydroxyphenyl)pyridazin-4-yl)-3,8-diazabicyclo[3.2.1]octan-8-yl)pyridin-2-yl)oxy)azetidin-1-yl)methyl)bicyclo[1.1.1]pentan-1-yl)prop-2-yn-1-yl)oxy)isoxazol-5-yl)-3-methylbutanoyl)-4-hydroxy-N-((S)-1-(4-(4-methylthiazol-5-yl)phenyl)ethyl)pyrrolidine-2-carboxamide]
Dmax [5]: > 75%
DC50 (target protein degradation, read-out: BRM DC50): > 30 nM

SMILES: Cc1ncsc1-c1ccc([C@H](C)NC(=O)[C@@H]2C[C@@H](O)CN2C(=O)[C@@H](c2cc(N3CCN(CCN4CCC(O[C@H]5C[C@H](Oc6cc(N7C8CCC7CN(c7cc(-c9ccccc9O)nnc7N)C8)ccn6)C5)CC4)CC3)no2)C(C)C)cn1 [compound 402, (2S,4R)-1-((2R)-2-(3-(4-(2-(4-((1r,3r)-3-((4-(3-(3-amino-6-(2-hydroxyphenyl)pyridazin-4-yl)-3,8-diazabicyclo[3.2.1]octan-8-yl)pyridin-2-yl)oxy)cyclobutoxy)piperidin-1-yl)ethyl)piperazin-1-yl)isoxazol-5-yl)-3-methylbutanoyl)-4-hydroxy-N-((S)-1-(6-(4-methylthiazol-5-yl)pyridin-3-yl)ethyl)pyrrolidine-2-carboxamide]
Dmax [5]: > 75%
DC50 (degradation of BRM, read-out: BRM DC50): < 2.5 nM

SMILES: Cc1ncsc1-c1ccc([C@H](C)NC(=O)[C@@H]2C[C@@H](O)CN2C(=O)[C@H](c2cc(N3CCC(O)(CN4CCC(O[C@H]5C[C@H](Oc6cc(N7C8CCC7CN(c7cc(-c9ccccc9O)nnc7N)C8)ccn6)C5)CC4)CC3)no2)C(C)C)cc1 [compound 641, (2S,4R)-1-((2S)-2-(3-(4-((4-((1r,3r)-3-((4-(3-(3-amino-6-(2-hydroxyphenyl)pyridazin-4-yl)-3,8-diazabicyclo[3.2.1]octan-8-yl)pyridin-2-yl)oxy)cyclobutoxy)piperidin-1-yl)methyl)-4-hydroxypiperidin-1-yl)isoxazol-5-yl)-3-methylbutanoyl)-4-hydroxy-N-((S)-1-(4-(4-methylthiazol-5-yl)phenyl)ethyl)pyrrolidine-2-carboxamide]
DC50 [2]: > 30 nM
